This test concerns the target human ACC2 (Homo sapiens (Human), UniProt O00763). In words: ACC2 assay (spectrophotometric 384 well assay, NADH-linked coupled lactate dehydrogenase/pyruvate kinase). It counts as biochemical. The settings on record: hACC2 construct lacking 128 N-terminal amino acids; 25° C., 340 nm, 15 minutes. Here is the method:
Spectrophotometric 384 Well Assay
Malonyl CoA formation by acetyl CoA carboxylases is stoichometrically linked to the consumption of ATP. ACC2 activity is measured in a NADH-linked kinetic method measuring ADP generated during the ACC reaction using a coupled lactate dehydrogenase/pyruvate kinase reaction.
For biological testing, a human ACC2 construct which lacks the 128 amino acids at the N-terminus for increased solubility (nt 385-6966 in Genbank entry AJ575592) is cloned. The protein is then expressed in insect cells using a baculoviral expression system. Protein purification is performed by anion exchange.
All compounds are dissolved in dimethyl sulfoxide (DMSO) to a concentration of 10 mM.
Assay reactions are then carried out in 384-well plates, with hACC2 in an appropriate dilution and at final assay concentrations (f.c.) of 100 mM Tris (pH 7.5), 10 mM trisodium citrate, 25 mM KHCO3, 10 mM MgCl2, 0.5 mg/ml BSA, 3.75 mM reduced L-glutathione, 15 U/ml lactate dehydrogenase, 0.5 mM phosphoenolpyruvate, 15 U/ml pyruvate kinase, compounds at different concentrations at final DMSO concentrations of 1%.
The enzymatic reaction is then started by addition of a mixture of NADH, acetyl Coenzyme A (both 200 μM f.c.) and ATP (500 uM f.c.). The decrease of the optical density (slope S) is then determined at 25° C. at a wavelength of 340 nm over 15 minutes in a spectrophotometric reader.
Each assay microtiter plate contains wells with vehicle instead of compound as controls for the non-inhibited enzyme (100% CTL; ‘HIGH’) and wells without acetyl-CoA as controls for non-specific NADH degradation (0% CTL; ‘LOW’).
The slope S is used for calculation of % CTL=(S(compound)−S(‘LOW’))/(S(‘HIGH’)—S(‘LOW’))*100. Compounds will give values between 100% CTL (no inhibition) and 0% CTL (complete inhibition).
For IC50 value determination, the sample slope in the presence of the test compound after subtraction of the low controls (S(compound)−S(‘LOW’)) are used.
An IC50 value is derived from the compound slopes at different dosages after subtraction of the low controls (S(compound)−S(‘LOW’)) by non-linear regression curve fitting (equation y=(A+((B−A)/(1+((C/x)^D))))).

Structures are written as SMILES.

human ACC2, sequence (O00763 129-2458): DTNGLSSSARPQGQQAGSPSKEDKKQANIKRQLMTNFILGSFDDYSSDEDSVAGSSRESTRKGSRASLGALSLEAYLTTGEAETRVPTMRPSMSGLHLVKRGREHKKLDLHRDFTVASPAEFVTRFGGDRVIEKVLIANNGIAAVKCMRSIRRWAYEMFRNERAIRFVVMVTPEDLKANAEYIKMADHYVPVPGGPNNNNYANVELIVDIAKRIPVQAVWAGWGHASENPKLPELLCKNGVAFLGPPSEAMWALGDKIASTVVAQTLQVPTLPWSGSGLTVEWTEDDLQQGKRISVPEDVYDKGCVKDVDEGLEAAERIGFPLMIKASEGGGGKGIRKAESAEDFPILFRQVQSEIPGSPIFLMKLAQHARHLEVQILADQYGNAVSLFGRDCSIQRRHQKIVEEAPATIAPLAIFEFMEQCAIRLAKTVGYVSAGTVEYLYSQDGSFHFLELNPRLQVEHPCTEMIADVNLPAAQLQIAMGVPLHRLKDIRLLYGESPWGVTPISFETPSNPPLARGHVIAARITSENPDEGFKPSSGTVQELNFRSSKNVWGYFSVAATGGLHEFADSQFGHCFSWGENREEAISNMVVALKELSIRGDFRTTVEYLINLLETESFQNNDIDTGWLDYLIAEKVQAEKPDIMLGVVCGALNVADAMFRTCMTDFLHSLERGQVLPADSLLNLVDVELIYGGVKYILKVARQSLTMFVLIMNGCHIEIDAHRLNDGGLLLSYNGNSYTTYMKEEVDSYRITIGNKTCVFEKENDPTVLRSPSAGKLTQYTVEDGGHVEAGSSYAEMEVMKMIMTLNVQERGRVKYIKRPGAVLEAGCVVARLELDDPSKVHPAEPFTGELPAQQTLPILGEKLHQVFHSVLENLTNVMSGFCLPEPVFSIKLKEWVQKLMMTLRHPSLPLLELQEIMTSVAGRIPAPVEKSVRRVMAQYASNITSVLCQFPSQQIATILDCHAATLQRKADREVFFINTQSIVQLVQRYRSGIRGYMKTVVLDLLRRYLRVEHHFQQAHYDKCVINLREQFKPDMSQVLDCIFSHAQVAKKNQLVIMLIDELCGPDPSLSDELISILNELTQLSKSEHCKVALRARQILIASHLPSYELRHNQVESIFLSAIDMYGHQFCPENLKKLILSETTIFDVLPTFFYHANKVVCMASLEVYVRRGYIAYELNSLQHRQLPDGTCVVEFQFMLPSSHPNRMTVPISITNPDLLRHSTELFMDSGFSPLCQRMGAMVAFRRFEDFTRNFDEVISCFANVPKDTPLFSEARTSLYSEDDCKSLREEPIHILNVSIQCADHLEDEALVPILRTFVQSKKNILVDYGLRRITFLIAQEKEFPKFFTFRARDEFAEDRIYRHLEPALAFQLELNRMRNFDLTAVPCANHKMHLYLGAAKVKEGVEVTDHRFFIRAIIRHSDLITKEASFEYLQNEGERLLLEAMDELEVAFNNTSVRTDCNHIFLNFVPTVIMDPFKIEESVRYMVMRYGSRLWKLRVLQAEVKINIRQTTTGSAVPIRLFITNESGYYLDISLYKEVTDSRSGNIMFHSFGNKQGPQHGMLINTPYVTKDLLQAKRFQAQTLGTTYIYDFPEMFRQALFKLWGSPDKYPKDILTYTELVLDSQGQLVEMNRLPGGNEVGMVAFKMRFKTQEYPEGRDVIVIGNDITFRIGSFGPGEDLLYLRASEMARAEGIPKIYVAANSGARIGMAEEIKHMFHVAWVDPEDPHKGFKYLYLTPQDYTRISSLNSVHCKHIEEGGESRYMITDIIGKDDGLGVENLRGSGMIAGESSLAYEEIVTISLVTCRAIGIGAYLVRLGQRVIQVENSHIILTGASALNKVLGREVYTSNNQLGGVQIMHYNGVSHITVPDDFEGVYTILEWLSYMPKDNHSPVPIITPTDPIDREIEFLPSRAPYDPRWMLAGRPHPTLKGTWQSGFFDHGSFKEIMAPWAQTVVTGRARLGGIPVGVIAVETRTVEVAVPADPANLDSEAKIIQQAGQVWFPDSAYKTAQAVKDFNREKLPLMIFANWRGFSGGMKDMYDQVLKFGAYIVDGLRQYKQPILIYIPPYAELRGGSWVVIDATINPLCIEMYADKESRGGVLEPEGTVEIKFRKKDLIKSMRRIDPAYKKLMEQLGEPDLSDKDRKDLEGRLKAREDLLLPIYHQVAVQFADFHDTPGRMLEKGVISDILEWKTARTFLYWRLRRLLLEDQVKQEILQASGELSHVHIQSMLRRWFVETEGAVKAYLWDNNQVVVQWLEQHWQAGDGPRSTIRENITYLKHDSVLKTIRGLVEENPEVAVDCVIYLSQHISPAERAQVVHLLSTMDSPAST

`CC(=O)N[C@@H](C)c1ccc(OC2CN(c3cc4c(cc3F)OCCO4)C2)cc1` [Example 1.57]: the IC50 – broadly, the concentration that gives 50% inhibition – was 740 nM.

`CCOc1ccc(N2CC(Oc3ccc([C@H](C)NC(C)=O)cc3)C2)c(OC)c1` [Example 1.17] came in with an IC50 of 1890 nM. This IC50 lies about 2.6-fold higher than the previous one. The result for `CC(=O)NC(C)c1ccc(OC2CN(c3ccc4c(c3)OCCO4)C2)cc1` (stereo not drawn) [Example 1.2] reads 240 nM. The compound `CC(=O)N[C@@H](C)c1ccc(OC2CN(c3ccc4c(c3)OCCCO4)C2)cc1` [Example 1.16] had an IC50 of 450 nM. Turning to `CCOc1ccc(N2CC(Oc3ccc([C@H](C)NC(=O)C(C)C)cc3)C2)cc1` [Example 8.16], the IC50 turned out to be 700 nM. Compound `CC(=O)N[C@@H](C)c1ccc(OC2CN(c3ccc(OCC4CC4)nc3C#N)C2)cc1` [Example 1.60] returned an IC50 of 650 nM. For the compound `CCOc1cccc(N2CC(Oc3ccc([C@H](C)NC(C)=O)cc3)C2)n1` [Example 4.11], the IC50 was 3620 nM. In turn, `CC(=O)N[C@@H](C)c1ccc(OC2CN(c3nccc(C(F)(F)F)n3)C2)cc1` [Example 4.16] showed an IC50 of 470 nM. Compared with the last compound, the IC50 is about 7.7-fold lower.

`CC(=O)N[C@@H](C)c1ccc(OC2CN(c3ccc(OC4CC4)cc3C)C2)cc1` [Example 1.44]: the IC50 was found to be 250 nM. This IC50 is about 1.9-fold lower than that of the compound before.

The compound `COc1ccc2nc(N3CC(Oc4ccc([C@H](C)NC(C)=O)cc4)C3)ccc2c1` [Example 4.22] had an IC50 of 450 nM. `CCOc1ccc(N2CC(Oc3ccc([C@H](C)NC(=O)CCCNC(C)=O)cc3)C2)cc1` [Example 8.43] returned an IC50 of 2340 nM. Take `CCOc1ccc(N2CC(Oc3ccc([C@H](C)NC(=O)OC)cc3)C2)cc1` [Example 10.7]: 230 nM corresponded to half-maximal inhibition (IC50). The figure for `CCOc1ccc(N2CC(Oc3ccc([C@H](C)NC(=O)C4(C#N)CC4)cc3)C2)cc1` [Example 8.12] is 1000 nM; for `C=CCC(=O)N[C@@H](C)c1ccc(OC2CN(c3ccc(OCC)cc3)C2)cc1` [Example 8.13] it is 450 nM. For the compound `CC(=O)N[C@@H](C)c1ccc(OC2CN(c3ncc4nc(-c5ccsc5)oc4n3)C2)cc1` [Example 4.26], the IC50 amounted to 13300 nM. As to `CCCC(=O)N[C@@H](C)c1ccc(OC2CN(c3ccc(OCC)cc3)C2)cc1` [Example 8.42], the IC50 was 1690 nM. In turn, `CC(=O)NC(C)c1ccc(OC2CN(c3ccc(C(C)(C)C)cc3)C2)cc1` (stereo not drawn) [Example 1.1, N-(1-(4-(1-(4-tert-Butylphenyl)azetidin-3-yloxy)phenyl)ethyl)acetamide] returned an IC50 of 180 nM. Compared with the last compound, the IC50 is about 9.4-fold lower. On to `CC(=O)N[C@@H](C)c1ccc(OC2CN(c3cc(Cl)ccn3)C2)cc1` [Example 4.7], for which the IC50 was 3470 nM. For the compound `CCOc1ccc(N2CC(Oc3ccc([C@H](C)NC(=O)c4cccnc4)cc3)C2)cc1` [Example 8.45], the IC50 came out at 2310 nM. The figure for `CC(=O)N[C@@H](C)c1ccc(OC2CN(c3ccnc(OC(C)C)c3)C2)cc1` [Example 2.7] is 2060 nM.

Regarding `CC(=O)N[C@@H](C)c1ccc(OC2CN(c3cccc(OCC4CC4)c3)C2)cc1` [Example 7.1], the half-maximal inhibitory concentration (IC50) was found to be 1440 nM.

Turning to `CCOc1ccc(N2CC(Oc3ccc([C@H](C)NC(=O)C4CNC(=O)C4)cc3)C2)cc1` (stereo partly drawn) [Example 8.39], half-maximal inhibition (IC50) was put at 5200 nM. The compound `CC(=O)N[C@@H](C)c1ccc(OC2CN(c3cc(N(C)CC4CC4)ncn3)C2)cc1` [Example 12.1] yielded an IC50 of 4120 nM.

In turn, `CC(=O)N[C@@H](C)c1ccc(OC2CN(c3cc(C(F)(F)F)ncn3)C2)cc1` [Example 4.14] registered an IC50 of 6110 nM. The figure for `CC(=O)N[C@@H](C)c1ccc(OC2CN(c3ccc(Cl)c(C(F)(F)F)n3)C2)cc1` [Example 4.32] is 100 nM. The result for `CC(=O)N[C@@H](C)c1ccc(OC2CN(c3ccnc(Oc4ccccc4)c3)C2)cc1` [Example 2.8] reads 4100 nM; that for `CC(=O)N[C@@H](C)c1ccc(OC2CN(c3ccc(C(C)C)cn3)C2)cc1` [Example 4.5], 2450 nM.

As for `CCOc1ccc(N2CC(Oc3ccc([C@H](C)NC(=O)COC)cc3)C2)cc1` [Example 8.47], the IC50 turned out to be 1910 nM. The result for `CC(=O)N[C@@H](C)c1ccc(OC2CN(c3ncc(Cl)cn3)C2)cc1` [Example 4.24] reads 390 nM; that for `CCCOc1ccc(N2CC(Oc3ccc([C@H](C)NC(=O)C4CC4)cc3)C2)c(OC)c1` [Example 8.1, (S)—N-(1-(4-(1-(2-Methoxy-4-propoxyphenyl)azetidin-3-yloxy)phenyl)ethyl)cyclopropanecarboxamide], 7700 nM. Compound `CCOc1ccc(N2CC(Oc3ccc([C@H](C)NC(=O)c4ccnc(NC(C)=O)c4)cc3)C2)cc1` [Example 8.25] registered an IC50 of 530 nM. `CC(=O)N[C@@H](C)c1ccc(OC2CN(c3cc(OC(C)C)ncn3)C2)cc1` [Example 11.2] registered an IC50 of 10600 nM. The result for `CC(=O)NC(C)c1ccc(OC2CN(c3ccc(OC4CCC4)cc3)C2)cc1` (stereo not drawn) [Example 1.4] reads 130 nM; that for `CC(=O)N[C@@H](C)c1ccc(OC2CN(c3ccc(OCC4CC4)cc3F)C2)cc1` [Example 2.2], 60 nM; that for `CC(=O)N[C@@H](C)c1ccc(OC2CN(c3ccc(Br)c(C#N)n3)C2)cc1` [Example 4.35], 1110 nM.

Compound `CCCOc1ccc(N2CC(Oc3ccc([C@H](C)NC(C)=O)cc3)C2)c(Cl)c1` [Example 2.6] displayed an IC50 of 90 nM.

Compound `CCOc1ccc(N2CC(Oc3ccc([C@H](C)NC(=O)c4cncs4)cc3)C2)cc1` [Example 8.41] gave an IC50 of 510 nM. The result for `CCNC(=O)N[C@@H](C)c1ccc(OC2CN(c3ccc(OCC)cc3)C2)cc1` [Example 10.4] reads 440 nM; that for `CCCc1cnc(N2CC(Oc3ccc(C(C)NC(C)=O)cc3)C2)nc1` (stereo not drawn) [Example 3.3], 320 nM. The result for `CC(=O)N[C@@H](C)c1ccc(OC2CN(c3ncc(OC(C)C)cn3)C2)cc1` [Example 4.34] reads 940 nM; that for `COc1cc(OCC2CC2)ccc1N1CC(Oc2ccc([C@H](C)NC(C)=O)cc2)C1` [Example 1.36], 2830 nM. For `COc1cnc(N2CC(Oc3ccc([C@H](C)NC(C)=O)cc3)C2)nc1` [Example 3.2], the IC50 was 1120 nM. In turn, `CC(=O)N[C@@H](C)c1ccc(OC2CN(c3ncc(-c4ccc(F)cc4)cn3)C2)cc1` [Example 6.1] came in with an IC50 of 90 nM. Consider `CC(=O)N[C@@H](C)c1ccc(OC2CN(c3ccc4ccccc4n3)C2)cc1` [Example 4.2], for which inhibition was half-maximal at 2040 nM (IC50). The compound `CCOc1ccc(N2CC(Oc3ccc([C@H](C)NC(=O)c4ccnnc4)cc3)C2)cc1` [Example 8.14] showed an IC50 of 2250 nM. As for `CC(=O)N[C@@H](C)c1ccc(OC2CN(c3cc(C(F)(F)F)cc(C)n3)C2)cc1` [Example 4.4], the IC50 turned out to be 3990 nM. Regarding `CCOc1ccc(N2CC(Oc3ccc([C@H](C)NC(=O)CC#N)cc3)C2)cc1` [Example 8.8], the IC50 amounted to 430 nM. Compared with the last compound, the IC50 is about 9.3-fold lower. In turn, `CC(=O)NC(C)c1ccc(OC2CN(c3ccc(OC4CC4)cc3)C2)cc1` (stereo not drawn) [Example 1.3] had an IC50 of 530 nM.

`CCOc1ccc(N2CC(Oc3ccc([C@H](C)NC(=O)C4CC(F)C4)cc3)C2)cc1` (stereo partly drawn) [Example 8.19]: inhibition was half-maximal at 690 nM (IC50). Compound `CC(=O)NC(C)c1ccc(OC2CN(c3ccc(OC4CCCC4)cc3)C2)cc1` (stereo not drawn) [Example 1.6] registered a half-inhibitory concentration (IC50) of 80 nM. The figure for `CC(=O)N[C@@H](C)c1ccc(OC2CN(c3ccc(C4(C#N)CC4)cn3)C2)cc1` [Example 4.12] is 1060 nM; for `CCOc1cccc(N2CC(Oc3ccc([C@H](C)NC(C)=O)cc3)C2)c1` [Example 1.30] it is 670 nM; for `CCOc1ccc(N2CC(Oc3ccc([C@H](C)NC(=O)c4cnc(NC(C)=O)s4)cc3)C2)cc1` [Example 8.32] it is 550 nM. `CC(=O)N[C@@H](C)c1ccc(OC2CN(c3cc4c(cc3F)OCCCO4)C2)cc1` [Example 1.53] registered an IC50 of 760 nM. As for `CCCOc1ccc(N2CC(Oc3ccc([C@H](C)NC(C)=O)cc3)C2)c(C)c1` [Example 2.5], the IC50 was 170 nM. Compared with the last compound, the IC50 is about 4.5-fold lower. On to `CC(=O)NC(C)c1ccc(OC2CN(c3cnc(OC4CCC4)nc3)C2)cc1` (stereo not drawn) [Example 1.10], for which the IC50 worked out at 670 nM. The figure for `CC(=O)N[C@@H](C)c1ccc(OC2CN(c3ncc(C4CC4)cn3)C2)cc1` [Example 5.1, (S)—N-(1-(4-(1-(5-Cyclopropylpyrimidin-2-yl)azetidin-3-yloxy)phenyl)ethyl)acetamide] is 170 nM; for `CCOc1ccc(N2CC(Oc3ccc([C@H](C)NC(=O)C4CC4)cc3)C2)cc1` [Example 2.10] it is 140 nM. Take `CCOc1ccc(N2CC(Oc3ccc([C@H](C)NC(=O)C(C)(C)OC)cc3)C2)cc1` [Example 8.36]: the IC50 worked out at 3040 nM. Consider `CC(=O)N[C@@H](C)c1ccc(OC2CN(c3cccc(C(F)(F)F)n3)C2)cc1` [Example 4.21], for which the half-inhibitory concentration (IC50) was determined as 410 nM.
